This assay deals with GST-Bc1-2 (Homo sapiens, UniProt P10415). The experiment in a line: Time Resolved-Fluorescence Resonance Energy Transfer (TR-FRET) Bcl-2 binding assay with F-Bak peptide probe. The following applies: GST-Bcl-2 1 nM, F-Bak probe 100 nM, Tb-anti-GST 1 nM; '<' = below limit of detection; read-out: TR-FRET Bcl-2 Binding Ki. On the technique in general: Time-resolved FRET reads energy transfer from a long-lived donor to a nearby acceptor.
GST-Bc1-2, sequence (P10415 whole entry): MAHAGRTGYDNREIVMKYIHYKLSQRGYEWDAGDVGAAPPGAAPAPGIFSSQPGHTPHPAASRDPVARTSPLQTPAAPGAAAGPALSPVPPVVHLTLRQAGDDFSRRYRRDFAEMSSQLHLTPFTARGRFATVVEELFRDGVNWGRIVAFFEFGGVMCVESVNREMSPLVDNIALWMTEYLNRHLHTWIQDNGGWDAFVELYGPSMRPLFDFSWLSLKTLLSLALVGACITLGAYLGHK
Description: The samples are then mixed on a shaker for 1 minute and incubated for an additional 3 hours at room temperature. For each assay, the probe/antibody and protein/probe/antibody were included on each assay plate as negative and positive controls, respectively.
The samples were then mixed on a shaker for 1 minute and incubated for an additional 3 hours at room temperature. For each assay, the probe/antibody and protein/probe/antibody were included on each assay plate as negative and positive controls, respectively.
As for `C#Cc1cc(S(=O)(=O)NC(=O)c2ccc(N3CCN(CC4=C(c5ccc(Cl)cc5)CC(C)(C)CC4)CC3)cc2Oc2cnc3[nH]ccc3c2)cnc1OCC1CCOCC1` [Example 69, 4-(4-{[2-(4-chlorophenyl)-4,4-dimethylcyclohex-1-en-1-yl]methyl}piperazin-1-yl)-N-{[5-ethynyl-6-(tetrahydro-2H-pyran-4-ylmethoxy)pyridin-3-yl]sulfonyl}-2-(1H-pyrrolo[2,3-b]pyridin-5-yloxy)benzamide], the Ki (as a rule, a dissociation constant, usually derived from enzyme kinetics or from competition with a known ligand) came out at 1.16 nM.

In the case of `CC1(C)CCC(CN2CCN(c3ccc(C(=O)NS(=O)(=O)c4ccc5nc[nH]c(=O)c5c4)c(Oc4cnc5[nH]ccc5c4)c3)CC2)=C(c2ccc(Cl)cc2)C1` [Example 70, 4-(4-{[2-(4-chlorophenyl)-4,4-dimethylcyclohex-1-en-1-yl]methyl}piperazin-1-yl)-N-[(4-oxo-3,4-dihydroquinazolin-6-yl)sulfonyl]-2-(1H-pyrrolo[2,3-b]pyridin-5-yloxy)benzamide], the Ki worked out at 3.96 nM.

On to `O=C(NS(=O)(=O)c1ccc(N[C@H]2CC[C@H](N3CCOCC3)CC2)c([N+](=O)[O-])c1)c1ccc(N2CCN(CC3=C(c4ccc(Cl)cc4)CCC4(CCCC4)C3)CC2)cc1Oc1cnc2[nH]ccc2c1` [Example 71, Trans-4-(4-{[8-(4-chlorophenyl)spiro[4.5]dec-7-en-7-yl]methyl}piperazin-1-yl)-N-({4-[(4-morpholin-4-ylcyclohexyl)amino]-3-nitrophenyl}sulfonyl)-2-(1H-pyrrolo[2,3-b]pyridin-5-yloxy)benzamide], for which the Ki turned out to be 0.01 nM.

As to `CO[C@H]1CC[C@@H](CNc2ccc(S(=O)(=O)NC(=O)c3ccc(N4CCN(CC5=C(c6ccc(Cl)cc6)CC(C)(C)OC5)CC4)cc3Oc3cnc4[nH]ccc4c3)cc2[N+](=O)[O-])CC1` [Example 72, Cis-4-(4-{[4-(4-chlorophenyl)-6,6-dimethyl-5,6-dihydro-2H-pyran-3-yl]methyl}piperazin-1-yl)-N-[(4-{[(4-methoxycyclohexyl)methyl]amino}-3-nitrophenyl)sulfonyl]-2-(1H-pyrrolo[2,3-b]pyridin-5-yloxy)benzamide], the Ki was less than 0.01 nM.

Take `O=C(NS(=O)(=O)c1ccc(OCC2(F)CCOCC2)c([N+](=O)[O-])c1)c1ccc(N2CCN(CC3=C(c4ccc(Cl)cc4)CCC4(CCCC4)C3)CC2)cc1Oc1cnc2[nH]ccc2c1` [Example 73, 4-(4-{[8-(4-chlorophenyl)spiro[4.5]dec-7-en-7-yl]methyl}piperazin-1-yl)-N-({4-[(4-fluorotetrahydro-2H-pyran-4-yl)methoxy]-3-nitrophenyl}sulfonyl)-2-(1H-pyrrolo[2,3-b]pyridin-5-yloxy)benzamide]: the Ki was less than 0.01 nM.

Regarding `CC1(C)CCC(c2ccc(Cl)cc2)=C(CN2CCN(c3ccc(C(=O)NS(=O)(=O)c4ccc(NCC5CCOCC5)c([N+](=O)[O-])c4)c(Oc4cnc5[nH]ccc5c4)c3)CC2)C1` [Example 75, 4-(4-{[2-(4-chlorophenyl)-5,5-dimethylcyclohex-1-en-1-yl]methyl}piperazin-1-yl)-N-({3-nitro-4-[(tetrahydro-2H-pyran-4-ylmethyl)amino]phenyl}sulfonyl)-2-(1H-pyrrolo[2,3-b]pyridin-5-yloxy)benzamide], the Ki was less than 0.01 nM.

Consider `CC1(C)CCC(c2ccc(Cl)cc2)=C(CN2CCN(c3ccc(C(=O)NS(=O)(=O)c4cnc(OCC5CCOCC5)c(C#N)c4)c(Oc4cnc5[nH]ccc5c4)c3)CC2)C1` [Example 76, 4-(4-{[2-(4-chlorophenyl)-5,5-dimethylcyclohex-1-en-1-yl]methyl}piperazin-1-yl)-N-{[5-cyano-6-(tetrahydro-2H-pyran-4-ylmethoxy)pyridin-3-yl]sulfonyl}-2-(1H-pyrrolo[2,3-b]pyridin-5-yloxy)benzamide], for which the Ki was determined as 0.196 nM.

Consider `CC1(C)CCC(CN2CCN(c3ccc(C(=O)NS(=O)(=O)c4ccc(OCC5COCCN5C(=O)OC(C)(C)C)c([N+](=O)[O-])c4)c(Oc4cnc5[nH]ccc5c4)c3)CC2)=C(c2ccc(Cl)cc2)C1` (centres unmarked) [Example 77, tert-butyl 3-{[4-({[4-(4-{[2-(4-chlorophenyl)-4,4-dimethylcyclohex-1-en-1-yl]methyl}piperazin-1-yl)-2-(1H-pyrrolo[2,3-b]pyridin-5-yloxy)benzoyl]amino}sulfonyl)-2-nitrophenoxy]methyl}morpholine-4-carboxylate], for which the Ki is 0.213 nM.

For the compound `CC1(C)CCC(CN2CCN(c3ccc(C(=O)NS(=O)(=O)c4ccc(OCC5COCCN5)c([N+](=O)[O-])c4)c(Oc4cnc5[nH]ccc5c4)c3)CC2)=C(c2ccc(Cl)cc2)C1` (centres unmarked) [Example 78, 4-(4-{[2-(4-chlorophenyl)-4,4-dimethylcyclohex-1-en-1-yl]methyl}piperazin-1-yl)-N-{[4-(morpholin-3-ylmethoxy)-3-nitrophenyl]sulfonyl}-2-(1H-pyrrolo[2,3-b]pyridin-5-yloxy)benzamide], the Ki was less than 0.01 nM.

On to `O=C(NS(=O)(=O)c1ccc(NCC2CCOCC2)c([N+](=O)[O-])c1)c1ccc(N2CCN(CC3=C(c4ccc(Cl)cc4)CCC4(CCCC4)C3)CC2)cc1Oc1cnc2[nH]ccc2c1` [Example 79, 4-(4-{[8-(4-chlorophenyl)spiro[4.5]dec-7-en-7-yl]methyl}piperazin-1-yl)-N-({3-nitro-4-[(tetrahydro-2H-pyran-4-ylmethyl)amino]phenyl}sulfonyl)-2-(1H-pyrrolo[2,3-b]pyridin-5-yloxy)benzamide], for which the Ki was less than 0.01 nM.

As to `CC1(C)CCC(CN2CCN(c3ccc(C(=O)NS(=O)(=O)c4ccc(NC5CCN(S(C)(=O)=O)CC5)c([N+](=O)[O-])c4)c(Oc4cnc5[nH]ccc5c4)c3)CC2)=C(c2ccc(Cl)cc2)C1` [Example 80, 4-(4-{[2-(4-chlorophenyl)-4,4-dimethylcyclohex-1-en-1-yl]methyl}piperazin-1-yl)-N-[(4-{[1-(methylsulfonyl)piperidin-4-yl]amino}-3-nitrophenyl)sulfonyl]-2-(1H-pyrrolo[2,3-b]pyridin-5-yloxy)benzamide], the Ki is less than 0.01 nM.

With `CC1(C)CCC(CN2CCN(c3ccc(C(=O)NS(=O)(=O)c4ccc(NC5CCS(=O)(=O)CC5)c([N+](=O)[O-])c4)c(Oc4cnc5[nH]ccc5c4)c3)CC2)=C(c2ccc(Cl)cc2)C1` [Example 81, 4-(4-{[2-(4-chlorophenyl)-4,4-dimethylcyclohex-1-en-1-yl]methyl}piperazin-1-yl)-N-({4-[(1,1-dioxidotetrahydro-2H-thiopyran-4-yl)amino]-3-nitrophenyl}sulfonyl)-2-(1H-pyrrolo[2,3-b]pyridin-5-yloxy)benzamide], the Ki was less than 0.01 nM.

Take `CC1(C)CCC(CN2CCN(c3ccc(C(=O)NS(=O)(=O)c4ccc(Cl)c([N+](=O)[O-])c4)c(Oc4cnc5[nH]ccc5c4)c3)CC2)=C(c2ccc(Cl)cc2)C1` [Example 82, N-[(4-chloro-3-nitrophenyl)sulfonyl]-4-(4-{[2-(4-chlorophenyl)-4,4-dimethylcyclohex-1-en-1-yl]methyl}piperazin-1-yl)-2-(1H-pyrrolo[2,3-b]pyridin-5-yloxy)benzamide]: the Ki stood at 0.328 nM.

Regarding `CC1(C)CCC(CN2CCN(c3ccc(C(=O)NS(=O)(=O)c4ccc(NC5CCN(CC(F)(F)F)CC5)c([N+](=O)[O-])c4)c(Oc4cnc5[nH]ccc5c4)c3)CC2)=C(c2ccc(Cl)cc2)C1` [Example 83, 4-(4-{[2-(4-chlorophenyl)-4,4-dimethylcyclohex-1-en-1-yl]methyl}piperazin-1-yl)-N-[(3-nitro-4-{[1-(2,2,2-trifluoroethyl)piperidin-4-yl]amino}phenyl)sulfonyl]-2-(1H-pyrrolo[2,3-b]pyridin-5-yloxy)benzamide], the Ki is 0.071 nM.
